Target: NAMPT (Homo sapiens, UniProt P43490)
Experiment: NAMPT enzyme activity assay coupled with NMNAT1 and ADH (NADH fluorescence)
Conditions: AUC of dose-response curve (0.1, 0.3, 1, 3, 10 μM) relative to AUC of NAT (NAT = 1); 1 μM NAMPT, 200 μM NAM
Procedure: The NAMPT enzyme activity was assayed by a method coupled with the three enzymes: NAMPT, NMNAT1 and alcohol dehydrogenase (ADH). NAMPT synthesizes NMN from NAM and PRPP, NMNAT1 synthesizes NAD from NMN produced in the first step, and ADH converts NAD into detectable fluorescent NADH. […] The reaction was initiated by adding 200 μM nicotinamide (NAM) and mixing gently. The enzyme activity of NAMPT was expressed as the concentration of NADH generated per minute (the molar value was equal to NAD). The relative enzyme activity of NAMPT in each compound-treated group was normalized by the value of the DMSO-treated group, and a dose-response curve was drawn to evaluate the effect of individual compounds on NAMPT enzyme activity. The area under the dose-response curve (AUC, area under curve) was then calculated for individual compound and compared to the AUC of NAT, so that the obtained relative value quantitative Eauc represented the enzyme activation activity of each compound, and the specific calculation formula was shown in FIG. 3.

Chain of NAMPT (P43490 whole entry, species assumed): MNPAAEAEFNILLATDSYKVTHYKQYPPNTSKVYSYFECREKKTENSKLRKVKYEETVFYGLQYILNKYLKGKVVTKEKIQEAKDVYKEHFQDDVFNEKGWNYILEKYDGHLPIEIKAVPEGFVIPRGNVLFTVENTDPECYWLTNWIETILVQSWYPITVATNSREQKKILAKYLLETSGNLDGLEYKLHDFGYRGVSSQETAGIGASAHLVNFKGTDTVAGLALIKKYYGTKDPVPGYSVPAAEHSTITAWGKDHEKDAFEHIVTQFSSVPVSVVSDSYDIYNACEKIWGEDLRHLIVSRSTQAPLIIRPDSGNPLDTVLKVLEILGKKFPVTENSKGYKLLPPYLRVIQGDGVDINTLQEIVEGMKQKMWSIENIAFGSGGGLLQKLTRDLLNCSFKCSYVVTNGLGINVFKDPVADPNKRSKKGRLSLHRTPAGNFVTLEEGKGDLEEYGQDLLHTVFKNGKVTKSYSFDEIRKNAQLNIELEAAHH

Row | SMILES | Relative activation of NAMPT activity
1 | CC(C)(C)c1ccccc1OCC(=O)Nc1cccc(O)c1 [Compound 3, 2-(2-(tert-butyl)phenoxy)-N-(3-hydroxyphenyl)acetamide] | −0.1895
2 | CC(C)(C)c1ccccc1OCC(=O)Nc1ccccc1O [Compound 4, 2-(2-(tert-butyl)phenoxy)-N-(2-hydroxyphenyl)acetamide] | −0.1833
3 | COc1ccc(NC(=O)COc2ccccc2C(C)(C)C)cc1 [Compound 5, 2-(2-(tert-butyl)phenoxy)-N-(4-methoxyphenyl)acetamide] | −0.168
4 | CCOC(=O)c1ccc(NC(=O)COc2ccccc2C(C)(C)C)cc1 [Compound 6, ethyl 4-(2-(2-(tert-butyl)phenoxy)acetamido) benzoate] | −0.1512
5 | CN(C)c1ccc(NC(=O)COc2ccccc2C(C)(C)C)cc1 [Compound 7, 2-(2-(tert-butyl)phenoxy)-N-(4-(dimethylamino)phenyl)acetamide] | −0.1777
6 | CC(C)(C)c1ccccc1OCC(=O)Nc1ccc(Cl)cc1 [Compound 8, 2-(2-(tert-butyl)phenoxy)-N-(4-chlorophenyl)acetamide] | −0.1983
7 | CC(C)(C)c1ccccc1OCC(=O)Nc1ccc(F)cc1 [Compound 9, 2-(2-(tert-butyl)phenoxy)-N-(4-fluorophenyl)acetamide] | −0.2123
8 | Cc1ccc(NC(=O)COc2ccccc2C(C)(C)C)cc1 [Compound 10, 2-(2-(tert-butyl)phenoxy)-N-(p-tolyl)acetamide] | −0.1608
9 | CC(C)(C)c1ccccc1OCC(=O)Nc1ccc(Oc2ccccc2)cc1 [Compound 11, 2-(2-(tert-butyl)phenoxy)-N-(4-phenoxyphenyl)acetamide] | −0.1409
10 | CC(C)(C)c1ccccc1OCC(=O)Nc1ccc(-c2ccccc2)cc1 [Compound 12] | −0.0947
11 | CC(C)(C)c1ccccc1CNC(=O)Nc1ccc(O)cc1 [Compound 25, 1-(2-tert-butyl)benzyl-3-(4-hydroxyl)phenylurea] | −0.2226
12 | CC(C)(C)c1ccccc1OCC(=O)Nc1ccc(S(N)(=O)=O)cc1 [Compound 26, 2-(2-(tert-butyl)phenoxy)-N-(4-sulfamoylphenyl)acetamide] | −0.2346
13 | CC(C)(C)c1ccccc1OCC(=O)Nc1ccc(B(O)O)cc1 [Compound 27] | 0.1217
14 | CC(C)(C)c1ccccc1OCC(=O)Nc1ccc(CO)cc1 [Compound 28, 2-(2-(tert-butyl)phenoxy)-N-(4-(hydroxymethyl)phenyl)acetamide] | −0.2198
15 | CC(C)(C)OC(=O)Nc1ccc(NC(=O)COc2ccccc2C(C)(C)C)cc1 [Compound 29, tert-butyl (4-(2-(2-(tert-butyl)phenoxy)acetamido)phenyl)carbamate] | −0.1978
16 | CC(C)(C)c1ccccc1OCC(=O)Nc1ccc(N)cc1 [Compound 30, N-(4-aminophenyl)-2-(2-(tert-butyl)phenoxy)acetamide] | 0.8075
17 | CC(C)(C)c1ccccc1OCC(=O)Nc1ccc(C#N)cc1 [Compound 32, 2-(2-(tert-butyl)phenoxy)-N-(4-cyanophenyl)acetamide] | −0.2396

Row | SMILES | Relative activation of NAMPT activity
18 | CC(C)(C)c1ccccc1OCC(=O)Nc1ccc(C(=O)O)cc1 [Compound 33, 4-(2-(2-(tert-butyl)phenoxy)acetamido)benzoic acid] | −0.1619
19 | CC(C)(C)c1ccccc1OCC(=O)Nc1ccc(S)cc1 [Compound 34, 2-(2-(tert-butyl)phenoxy)-N-(4-mercaptophenyl)acetamide] | −0.096
20 | CC(C)(C)c1ccccc1OCC(=O)Nc1ccc(O)cc1C(=O)O [Compound 35, 2-(2-(2-(tert-butyl)phenoxy)acetamido)-5-hydroxybenzoic acid] | −0.0889
21 | CC(C)(C)c1ccccc1OCC(=O)Nc1ccc(O)c(O)c1 [Compound 37, 2-(2-(tert-butyl)phenoxy)-N-(3,4-dihydroxyphenyl)acetamide] | −0.1366
22 | CC(C)(C)c1ccccc1OCC(=O)Nc1ccc(O)cc1C(F)(F)F [Compound 38, 2-(2-(tert-butyl)phenoxy)-N-(4-hydroxy-2-(trifluoromethyl)phenyl)acetamide] | −0.12
23 | CC(C)(C)c1ccccc1OCC(=O)Nc1ccc(O)c(C(F)(F)F)c1 [Compound 39, 2-(2-(tert-butyl)phenoxy)-N-(4-hydroxyl-3-(trifluoromethyl)phenyl)acetamide] | −0.1435
24 | CC(C)(C)c1ccccc1OCC(=O)Nc1ccc(O)c(Cl)c1 [Compound 42, 2-(2-(tert-butyl)phenoxy)-N-(3-chloro-4-hydroxyphenyl)acetamide] | −0.1833
25 | Cc1cc(O)ccc1NC(=O)COc1ccccc1C(C)(C)C [Compound 43] | −0.168
26 | COc1cc(NC(=O)COc2ccccc2C(C)(C)C)ccc1O [Compound 44, 2-(2-(tert-butyl)phenoxy)-N-(4-hydroxyl-3-methoxyphenyl)acetamide] | −0.1512
27 | COC(=O)c1cc(NC(=O)COc2ccccc2C(C)(C)C)ccc1O [Compound 45, 5-(2-(2-(tert-butyl)phenoxy)acetamido)-2-hydroxybenzoic acid methyl ester] | −0.3625
28 | CC(=O)c1cc(NC(=O)COc2ccccc2C(C)(C)C)ccc1O [Compound 46, N-(3-acetyl-4-hydroxyphenyl)-2-(2-(tert-butyl)phenoxy)acetamide] | −0.1777
29 | CC(C)(C)c1ccccc1OCC(=O)Nc1ccc(O)c(CO)c1 [Compound 47, 2-(2-(tert-butyl)phenoxy)-N-(4-hydroxyl-3-(hydroxymethyl)phenyl)acetamide] | −0.1983
30 | CC(C)(C)c1ccccc1OCC(=O)Nc1ccc(O)cc1O [Compound 48, 2-(2-(tert-butyl)phenoxy)-N-(2,4-dihydroxyphenyl)acetamide] | −0.1608
31 | CC(C)(C)c1ccccc1OCC(=O)Nc1ccc(O)cn1 [Compound 49, 2-(2-(tert-butyl)phenoxy)-N-(5-hydroxypyridin-2-yl)acetamide] | −0.0947
32 | CC(C)(C)c1ccccc1OCC(=O)Nc1ccc(O)cc1CO [Compound 50, 2-(2-(tert-butyl)phenoxy)-N-(4-hydroxyl-2-(hydroxymethyl)phenyl)acetamide] | −0.1356
33 | CC(C)(C)c1cc(Br)cc(Br)c1OCC(=O)Nc1ccc(O)cc1 [Compound 60, 2-(2,4-dibromo-6-(tert-butyl)phenoxy)-N-(4-hydroxyphenyl)acetamide] | 0.02456
